According to publication PMC10485906, “Development of a Dihydroquinoline–Pyrazoline GluN2C/2D-Selective Negative Allosteric Modulator of the N-Methyl-D-aspartate Receptor” (ACS Chemical Neuroscience, 2023):
Like-named read-outs stand apart in the source and are kept apart here.

Legend:
[1] = Kinetic solubility in PBS (nephelometer); type: physicochemical; conditions: Dulbecco's phosphate-buffered saline (DPBS), 25 °C, pH 7.2, aqueous buffer, kinetic from dmso stock, 1% DMSO, room temperature, n = 7
Text: Anticipating that the carboxylate side chain may hinder BBB penetrance, we synthesized and biologically screened a series of 2i prodrugs with ester and amide masking groups. With the classical physiochemical parameters required for brain exposure (i.e., molecular weight, MW, lipophilicity, and topological polar surface area, TPSA) and drug release mechanisms beyond the BBB in mind, we focused on simple alkyl-based promoieties. Our selected lead compound (2i), a close analogue (2a), and their corresponding prodrugs (2l–r) were studied in vitro to ascertain drug solubility, metabolic stability in liver microsomes (LMs), plasma stability, mouse brain homogenate stability, and cytochrome P450 (CYP450) inhibition (Tables S3 and S4 for predicted absorption, distribution, metabolism, and excretion or ADME parameters). […]
Methods for Kinetic Solubility Experiments
The test compounds were first dissolved in DMSO to provide stock solutions of either 30 mM or 60 mM. Kinetic solubility experiments were then performed in a 96-well microtiter plate (Clear-Bottom, Black, Corning® Costar) with a final volume of 250 µL per well in rows B-H. Each plate was initially prepared with the addition of 16 μL of DMSO to well A3, 20 μL to well A4, 27 μL to well A5, and 40 μL to all remaining wells in row A (A1 and A6-12). Next, the test compound (30 μL of DMSO stock solution) was directly added to well A2 without further modification. Moreover, the test compound (64 μL of DMSO stock solution) was diluted in well A3 to give a total volume of 80 μL. Further dilutions were then conducted by removing 60 µL from well A3 and adding it to A4, followed by removing 53 µL from well A4 and adding it to A5, followed by removing 40 µL from well A5 and adding it to A6, and sequentially removing 40 µL from the remaining wells up to A12. Well A1 served as a DMSO blank.
The sample solutions prepared in row A (2.5 µL from each well) were transferred to the corresponding wells in rows B-H. Dulbecco’s phosphate-buffered saline (DPBS, Gibco®, 1X, no Ca2+ and Mg2+, pH […]
7.1-7.3) was then added to all wells in rows B-H (30 µL each), and the 96-well plate was incubated at 25 °C for 1 min. Next, DPBS (217.5 µL) was added to all wells in rows B-H, and the 96-well plate was once more incubated at 25 °C for 2 h. This procedure provided seven replicate experiments with final concentrations of the test compound (1% DMSO in DPBS) ranging from either 300 to 0.9375 µM or 600 to 1.875 µM in rows B-H, depending on the whether a 30 mM or 60 mM DMSO stock solution was used, respectively (i.e. a 100-fold dilution from sample preparation in row A). After incubation, the plates were analyzed using a NEPHELOstar® microplate reader, and the segmental linear regression data was processed with MARS analysis software (BMG LabTech, see Supplemental Figure S4A for a representative example). […]
Synergy-S diffractometer. The crystal was kept at a steady T = 100.0(3) K during data collection. The structure was solved with the ShelXT 2018/2 (Sheldrick, 2015, Bauer and Gotz, 2021) solution program using dual methods and by using Olex2 1.5-alpha (Dolomanov et al., 2009) as the graphical interface.
The model was refined with olex2.refine 1.5-alpha (Bourhis et al., 2015) using full matrix least squares […]
which were used in all calculations. The final wR2 was 0.0983 (all data) and R1 was 0.0412 (I≥2 s(I)).

[2] = Brain homogenate tissue binding and stability (RED device); type: in vitro ADME, mouse; conditions: for fraction unbound at 4 h, 5 µM / remaining at 4 h, 5 µM: C57BL/6, mouse, brain homogenate (4 times diluted); for remaining at 4 h, 5 µM: pH 7.4, starting concentration 5 μM; for recovery at 4 h, 5 μM: C57BL/6, pH 7.4, mouse brain tissue binding; for Average 2i Concentration, Buffer_Mice: buffer chamber after 4 h dialysis; for Average 2i Concentration, Brain_St_0Hr_Mice / Average 2i Concentration, Brain_St_4Hr_Mice: brain homogenate stability sample; for Average 2i Concentration, Brain_St_0Hr_Mice: 0 h; for Average 2i Concentration, Brain_Mice: brain homogenate chamber after 4 h dialysis
Experimental: Carbamazepine (Apin Chemicals) served as a positive control for brain tissue binding. Test compounds and the positive control were initially dissolved in DMSO to make 1 mM stock solutions. […] A rapid equilibrium dialysis (RED) device (Thermo Scientific) containing a dialysis membrane with a molecular weight cutoff of 8000 Da was used to assess tissue binding and metabolic stability. […] The test compounds and positive control (200 μL of 5 μM solution) were added to the red chamber of the dialysis insert, while the white chamber was filled with dialysis buffer (350 μL). The RED device was then sealed with an adhesive film and incubated at 37 °C with shaking (300 rpm) for 4 h. For the initial time point (t = 0 min), 50 μL aliquots of test compounds and the positive control were added to 96-deep well plates (0.7 mL per well) and quenched with 400 μL of MeCN. Following dialysis, another 50 μL aliquot of the tested samples was removed from each well (brain homogenate and buffer) and diluted with an equal volume of the opposite matrix to nullify any matrix effects. […] The supernatant (100 μL) was subsequently transferred to 96-deep well plates for LC-MS/MS analysis. Prodrug metabolism and 2i concentrations were determined by fit-for-purpose LC-MS/MS methods on a nine-point calibration curve ranging from 0.12 to 7.5 μM.

CYP2D6 = target: T1, CYP2D6 (Homo sapiens, UniProt P10635); assay: Fluorometric CYP450 enzyme inhibition assay, CYP2D6; type: in vitro ADME; conditions: n = 2 (2k n = 4)
T1 construct: purchased Corning; host or cells: insect cells (microsomes)
Experimental: CYP450 inhibition assays utilized microsomes from insect cells that express recombinant human CYP2D6 and CYP3A4 isoforms (Corning) with substrates of CYP2D6 (3-[2-(N,N-diethyl-N-methylammonium)-ethyl]-7-methoxy-4-methylcoumarin iodide, AMMC) and CYP3A4 (7-benzyloxy-4-trifluoromethylcoumarin, BFC) capable of producing fluorescent metabolites.[51],[52] […] A 100 mM sodium phosphate buffer was prepared and adjusted to a pH 7.4. In a separate falcon tube, a 2× enzyme–substrate (E–S) solution was prepared in phosphate buffer. The final concentrations of CYP2D6 and AMMC were 10 nM and 4 μM, respectively. The final concentrations of CYP3A4 and BFC were 20 nM and 40 μM, respectively. In a separate falcon tube, 2X solutions of the NADPH regenerating system (NRS) were prepared in phosphate buffer. The final concentrations for each NRS component in the corresponding assays were as follows: (1) CYP2D6 assay = 0.008 mM NADPH, 3.3 mM glucose-6-phosphate, and 0.4 U of glucose-6-phosphate dehydrogenase/mL and (2) CYP3A4 assay = 2.45 mM NADPH, 24.7 mM glucose-6-phosphate, and 1.25 U of glucose-6-phosphate dehydrogenase/mL.
Both enzymatic assays were conducted in a 96-well microtiter plate (Black, Corning Costar) with a final volume of 100 μL per well. Preparation of each plate began with the addition of 74 μL of the 2× E–S solution in the first well and 50 μL to all remaining wells (2–11) in the same row. […] 3-Fold serial dilutions of the test compounds were subsequently conducted by removing 25 μL from the first well and adding it to the second, followed by removing 25 μL from the second well and adding it to the third, and so forth until the 10th row. This procedure provided final concentrations for the test compound ranging from 100 to 0.01 μM across the same row (50 μL total for each well). Well 11 contained no test compound (0% inhibition and 100% activity). Well 12 contained 50 μL of substrate and test compound (100 μM) absent from the enzyme (0% activity, 100% inhibition). Wells 11 and 12 were used as controls for background fluorescence as described below. Each plate was then incubated for 30 min at 37 °C. After incubation was complete, reactions were initiated by the addition of 50 μL of 2X NRS to wells 1–12 (final well volume of 100 μL). Fluorescence measurements were immediately (<1 min) taken using a microplate reader (BioTek Synergy Neo 2). CYP2D6 was monitored at Ex/Em = 410/460 nm, and CYP3A4 was monitored at Ex/Em = 410/538 nm. Next, measurements were conducted in kinetic mode with scans every 5 min for 60 min. Two time points (30 and 60 min) were then chosen in the linear phase of the kinetic graph (reaction progression curve), and the corresponding relative fluorescence units (RFUs) at these time points were used to determine the rate of change in fluorescence according to the following equations [drawing 6] 3 [drawing 7] 4 [drawing 8] 5 where eq 3 defines the difference in RFUs between the 60 and 30 min time points, eq 4 normalizes the background-adjusted ΔRFU to no inhibitor control, and eq 5 converts % inhibition to % activity.
The resulting data were then exported and analyzed using Graph Pad Prism v7. The concentration of each test compound required to inhibit 50% substrate metabolism (IC50) was subsequently calculated from the resulting 10-point concentration–response curves (normalized fluorescence versus log[inhibitor]) using four-parameter logistic nonlinear regression (see Figure S4B for a representative example).

[3] = pH 7.4, mouse brain tissue binding (free fraction in brain), read-out: % Unbound
[4] = pH 7.4, mouse brain tissue binding, RED, 4 h, read-out: % Bound Mean ± SD (converted)
[5] = pH 7.4, mouse brain tissue binding, RED, 4 h, read-out: % Bound R1 (converted)
[6] = pH 7.4, mouse brain tissue binding, RED, 4 h, read-out: % Bound R2 (converted)

T1 sequence (P10635 whole entry): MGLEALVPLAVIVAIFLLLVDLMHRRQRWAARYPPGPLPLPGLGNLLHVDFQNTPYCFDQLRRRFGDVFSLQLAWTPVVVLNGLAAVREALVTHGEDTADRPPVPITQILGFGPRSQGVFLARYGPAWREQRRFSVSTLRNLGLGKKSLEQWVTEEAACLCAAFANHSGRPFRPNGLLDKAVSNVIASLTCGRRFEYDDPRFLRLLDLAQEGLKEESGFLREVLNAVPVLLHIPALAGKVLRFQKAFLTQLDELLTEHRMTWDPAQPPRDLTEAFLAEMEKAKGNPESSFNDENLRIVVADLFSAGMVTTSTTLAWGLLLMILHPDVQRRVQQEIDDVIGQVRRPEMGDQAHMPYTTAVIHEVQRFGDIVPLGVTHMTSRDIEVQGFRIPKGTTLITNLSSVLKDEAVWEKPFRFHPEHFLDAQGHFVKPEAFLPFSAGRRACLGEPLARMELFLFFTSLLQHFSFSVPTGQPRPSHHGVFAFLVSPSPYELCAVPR

O=C(O)CCC(=O)N1N=C(c2c(-c3ccc(Cl)cc3)c3ccccc3[nH]c2=O)CC1c1ccc(Cl)cc1 (stereo not drawn) [2a]
solubility kinetic at 2 h [1]: ~208 µM | fraction unbound at 4 h, 5 µM [2, 3]: 0.002 | fraction unbound at 4 h, 5 µM [2, 4]: 0.002 | fraction unbound at 4 h, 5 µM [2, 5]: 0.001 | fraction unbound at 4 h, 5 µM [2, 6]: 0.002 | fraction unbound at 4 h, 5 µM ([2]; pH 7.4, mouse brain tissue binding, read-out: fu): 0.002 | remaining at 4 h, 5 µM ([2]; 4 h): 94% | recovery at 4 h, 5 μM ([2]; RED, 4 h): 100% | IC50 (CYP2D6): 18 ± 0.8 µM

O=C(O)CC(F)(F)C(=O)N1N=C(c2c(-c3ccc(Cl)cc3)c3ccccc3[nH]c2=O)CC1c1ccc(Cl)cc1 (stereo not drawn) [2i]
solubility kinetic at 2 h [1]: ~38 µM | fraction unbound at 4 h, 5 µM [2, 3]: < 0.001 | fraction unbound at 4 h, 5 µM [2, 4]: < 0.001 | fraction unbound at 4 h, 5 µM [2, 5]: < 0.001 | fraction unbound at 4 h, 5 µM [2, 6]: < 0.001 | remaining at 4 h, 5 µM ([2]; 4 h): 105% | recovery at 4 h, 5 μM ([2]; RED, 4 h): 57% | IC50 (CYP2D6): > 20 µM

NC(=O)CC(F)(F)C(=O)N1N=C(c2c(-c3ccc(Cl)cc3)c3ccccc3[nH]c2=O)CC1c1ccc(Cl)cc1 (stereo not drawn) [2k]
solubility kinetic at 2 h [1]: ~30 µM | remaining at 4 h, 5 µM ([2]; 4 h): 44% | recovery at 4 h, 5 μM ([2]; RED, 4 h): 41% | metabolized in brain homogenate (% of prodrug) ([2]; after 4 h): 56% | IC50 (CYP2D6): > 20 µM

CCOC(=O)CC(F)(F)C(=O)N1N=C(c2c(-c3ccc(Cl)cc3)c3ccccc3[nH]c2=O)CC1c1ccc(Cl)cc1 (stereo not drawn) [2l]
solubility kinetic at 2 h [1]: 43 ± 18 µM | remaining at 4 h, 5 µM ([2]; 4 h): 43% | recovery at 4 h, 5 μM ([2]; RED, 4 h): 41% | Average 2i Concentration, Buffer_Mice [2]: BLQ | IC50 (CYP2D6): > 20 µM

CC(C)OC(=O)CC(F)(F)C(=O)N1N=C(c2c(-c3ccc(Cl)cc3)c3ccccc3[nH]c2=O)CC1c1ccc(Cl)cc1 (stereo not drawn) [2m]
solubility kinetic at 2 h [1]: 43 ± 10 µM | remaining at 4 h, 5 µM ([2]; 4 h): 56% | recovery at 4 h, 5 μM ([2]; RED, 4 h): 51% | Average 2i Concentration, Buffer_Mice [2]: BLQ | IC50 (CYP2D6): > 20 µM

O=C(CC(F)(F)C(=O)N1N=C(c2c(-c3ccc(Cl)cc3)c3ccccc3[nH]c2=O)CC1c1ccc(Cl)cc1)OCC1CC1 (stereo not drawn) [2n]
solubility kinetic at 2 h [1]: 27 ± 9 µM | remaining at 4 h, 5 µM ([2]; 4 h): 25% | recovery at 4 h, 5 μM ([2]; RED, 4 h): 29% | Average 2i Concentration, Brain_St_0Hr_Mice [2]: BLQ | Average 2i Concentration, Buffer_Mice [2]: BLQ | IC50 (CYP2D6): > 20 µM

CC(C)(C)COC(=O)CC(F)(F)C(=O)N1N=C(c2c(-c3ccc(Cl)cc3)c3ccccc3[nH]c2=O)CC1c1ccc(Cl)cc1 (stereo not drawn) [2o]
solubility kinetic at 2 h [1]: 52 ± 6.3 µM | remaining at 4 h, 5 µM ([2]; 4 h): 53% | recovery at 4 h, 5 μM ([2]; RED, 4 h): 44% | Average 2i Concentration, Brain_St_0Hr_Mice [2]: BLQ | Average 2i Concentration, Buffer_Mice [2]: BLQ | IC50 (CYP2D6): > 20 µM

O=C(CC(F)(F)C(=O)N1N=C(c2c(-c3ccc(Cl)cc3)c3ccccc3[nH]c2=O)CC1c1ccc(Cl)cc1)OCc1ccccc1 (stereo not drawn) [2p]
solubility kinetic at 2 h [1]: 40 ± 12 µM | remaining at 4 h, 5 µM ([2]; 4 h): 31% | recovery at 4 h, 5 μM ([2]; RED, 4 h): 33% | Average 2i Concentration, Buffer_Mice [2]: BLQ | IC50 (CYP2D6): > 20 µM

CNC(=O)CC(F)(F)C(=O)N1N=C(c2c(-c3ccc(Cl)cc3)c3ccccc3[nH]c2=O)CC1c1ccc(Cl)cc1 (stereo not drawn) [2q]
solubility kinetic at 2 h [1]: 52 ± 13 µM | remaining at 4 h, 5 µM ([2]; 4 h): 33% | recovery at 4 h, 5 μM ([2]; RED, 4 h): 30% | Average 2i Concentration, Brain_Mice [2]: BLQ | Average 2i Concentration, Brain_St_0Hr_Mice [2]: BLQ | Average 2i Concentration, Brain_St_4Hr_Mice ([2]; 4 h): BLQ | Average 2i Concentration, Buffer_Mice [2]: BLQ | IC50 (CYP2D6): > 20 µM

CN(C)C(=O)CC(F)(F)C(=O)N1N=C(c2c(-c3ccc(Cl)cc3)c3ccccc3[nH]c2=O)CC1c1ccc(Cl)cc1 (stereo not drawn) [2r]
solubility kinetic at 2 h [1]: 43 ± 5.1 µM | fraction unbound at 4 h, 5 µM [2, 3]: < 0.001 | fraction unbound at 4 h, 5 µM [2, 4]: < 0.001 | fraction unbound at 4 h, 5 µM [2, 5]: < 0.001 | fraction unbound at 4 h, 5 µM [2, 6]: < 0.001 | remaining at 4 h, 5 µM ([2]; 4 h): 93% | recovery at 4 h, 5 μM ([2]; RED, 4 h): 90% | Average 2i Concentration, Brain_Mice [2]: BLQ | Average 2i Concentration, Brain_St_0Hr_Mice [2]: BLQ | Average 2i Concentration, Brain_St_4Hr_Mice ([2]; 4 h): BLQ | Average 2i Concentration, Buffer_Mice [2]: BLQ | IC50 (CYP2D6): > 20 µM
